Legend:
[1] = target: Dual specificity protein kinase CLK1 (Homo sapiens) (UniProt P49759); conditions: Compound concentration 1000.0 nM
[2] = target: Receptor-interacting serine/threonine-protein kinase 1 (Homo sapiens) (UniProt Q13546); conditions: Compound concentration 1000.0 nM
[3] = target: Insulin-like growth factor 1 receptor (Homo sapiens) (UniProt P08069); conditions: Compound concentration 1000.0 nM
[4] = target: Serine/threonine-protein kinase B-raf (Homo sapiens) (UniProt P15056); conditions: Compound concentration 1000.0 nM
[5] = target: Calcium/calmodulin-dependent protein kinase type II subunit beta (Homo sapiens) (UniProt Q13554); conditions: Compound concentration 1000.0 nM
[6] = target: Ribosomal protein S6 kinase alpha-5 (Homo sapiens) (UniProt O75582); conditions: Compound concentration 1000.0 nM
[7] = target: Dual serine/threonine and tyrosine protein kinase (Homo sapiens) (UniProt Q6XUX3); conditions: Compound concentration 1000.0 nM
[8] = target: Serine/threonine-protein kinase Nek1 (Homo sapiens) (UniProt Q96PY6); conditions: Compound concentration 1000.0 nM
[9] = target: Serine/threonine-protein kinase MRCK gamma (Homo sapiens) (UniProt Q6DT37); conditions: Compound concentration 1000.0 nM
[10] = target: T1, 5-hydroxytryptamine receptor 2C (Homo sapiens) (UniProt P28335); conditions: Compound concentration 10.0 uM
T1 sequence (whole entry): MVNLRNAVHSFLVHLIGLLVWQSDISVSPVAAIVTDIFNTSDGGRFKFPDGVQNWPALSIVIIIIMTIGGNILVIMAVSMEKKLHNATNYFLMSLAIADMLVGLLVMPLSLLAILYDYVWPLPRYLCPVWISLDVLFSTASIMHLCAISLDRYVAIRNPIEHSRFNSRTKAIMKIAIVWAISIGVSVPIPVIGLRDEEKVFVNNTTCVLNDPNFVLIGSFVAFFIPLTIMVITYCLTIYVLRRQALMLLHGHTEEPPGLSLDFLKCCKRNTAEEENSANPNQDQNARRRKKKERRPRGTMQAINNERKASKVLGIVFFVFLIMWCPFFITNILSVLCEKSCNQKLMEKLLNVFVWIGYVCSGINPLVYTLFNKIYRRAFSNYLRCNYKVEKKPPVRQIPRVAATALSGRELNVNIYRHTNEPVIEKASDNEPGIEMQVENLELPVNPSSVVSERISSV

[11] = target: RAC-alpha serine/threonine-protein kinase (Homo sapiens) (UniProt P31749); conditions: Compound concentration 1000.0 nM
[12] = target: GABA-A receptor; anion channel (Rattus norvegicus) (UniProt O09028+P15431+P18506+P18508+P19969+P20236+P23574+P23576+P28471+P28473+P30191+P62813+P63079+P63138+Q91ZM7+Q9ES14); conditions: Compound concentration 10.0 uM
[13] = target: Cyclin-dependent kinase 4 (Homo sapiens) (UniProt P11802); conditions: Compound concentration 1000.0 nM
[14] = target: Serine/threonine-protein kinase NIM1 (Homo sapiens) (UniProt Q8IY84); conditions: Compound concentration 1000.0 nM
[15] = target: Dual specificity tyrosine-phosphorylation-regulated kinase 2 (Homo sapiens) (UniProt Q92630); conditions: Compound concentration 1000.0 nM
[16] = target: T2, Muscarinic acetylcholine receptor M4 (Homo sapiens) (UniProt P08173); conditions: Compound concentration 10.0 uM
T2 sequence (whole entry): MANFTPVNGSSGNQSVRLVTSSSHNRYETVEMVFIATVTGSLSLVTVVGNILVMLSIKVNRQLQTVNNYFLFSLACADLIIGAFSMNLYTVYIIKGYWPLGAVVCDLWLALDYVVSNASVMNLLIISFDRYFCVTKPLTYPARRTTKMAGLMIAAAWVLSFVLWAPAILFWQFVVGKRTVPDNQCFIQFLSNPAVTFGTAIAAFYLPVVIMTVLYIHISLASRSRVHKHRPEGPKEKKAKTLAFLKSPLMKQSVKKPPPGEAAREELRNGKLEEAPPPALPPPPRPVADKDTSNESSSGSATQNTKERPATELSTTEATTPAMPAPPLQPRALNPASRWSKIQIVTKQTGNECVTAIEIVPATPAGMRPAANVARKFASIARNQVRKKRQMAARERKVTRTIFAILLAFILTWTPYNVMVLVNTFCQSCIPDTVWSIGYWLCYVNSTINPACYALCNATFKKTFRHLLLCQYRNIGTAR

[17] = target: Myosin light chain kinase, smooth muscle (Homo sapiens) (UniProt Q15746); conditions: Compound concentration 1000.0 nM
[18] = target: G protein-coupled receptor kinase 3 (Homo sapiens) (UniProt P35626); conditions: Compound concentration 1000.0 nM
[19] = target: Serine/threonine-protein kinase 38-like (Homo sapiens) (UniProt Q9Y2H1); conditions: Compound concentration 1000.0 nM
[20] = target: Activin receptor type-1-like (Homo sapiens) (UniProt P37023); conditions: Compound concentration 1000.0 nM
[21] = target: Cyclin-dependent kinase 2 homolog (Plasmodium falciparum (isolate 3D7)) (UniProt P61075); conditions: Compound concentration 1000.0 nM
[22] = target: Homeodomain-interacting protein kinase 1 (Homo sapiens) (UniProt Q86Z02); conditions: Compound concentration 1000.0 nM
[23] = test system: Hepatocyte growth factor receptor (Homo sapiens), P08581 [M1250T]; conditions: Compound concentration 1000.0 nM
[24] = target: Activated CDC42 kinase 1 (Homo sapiens) (UniProt Q07912); conditions: Compound concentration 1000.0 nM
[25] = target: D(3) dopamine receptor (Homo sapiens) (UniProt P35462); conditions: Compound concentration 10.0 uM
[26] = target: Serine/threonine-protein kinase RIO3 (Homo sapiens) (UniProt O14730); conditions: Compound concentration 1000.0 nM
[27] = target: Serine/threonine-protein kinase 25 (Homo sapiens) (UniProt O00506); conditions: Compound concentration 1000.0 nM
[28] = target: Leukocyte tyrosine kinase receptor (Homo sapiens) (UniProt P29376); conditions: Compound concentration 1000.0 nM
[29] = test system: Phosphatidylinositol 4,5-bisphosphate 3-kinase catalytic subunit alpha isoform (Homo sapiens), P42336 [E545K]; conditions: Compound concentration 1000.0 nM
[30] = target: Casein kinase I isoform alpha-like (Homo sapiens) (UniProt Q8N752); conditions: Compound concentration 1000.0 nM
[31] = target: Homeodomain-interacting protein kinase 2 (Homo sapiens) (UniProt Q9H2X6); conditions: Compound concentration 1000.0 nM
Sequence of Homeodomain-interacting protein kinase 2 (Homo sapiens) (Q9H2X6 whole entry, looked up): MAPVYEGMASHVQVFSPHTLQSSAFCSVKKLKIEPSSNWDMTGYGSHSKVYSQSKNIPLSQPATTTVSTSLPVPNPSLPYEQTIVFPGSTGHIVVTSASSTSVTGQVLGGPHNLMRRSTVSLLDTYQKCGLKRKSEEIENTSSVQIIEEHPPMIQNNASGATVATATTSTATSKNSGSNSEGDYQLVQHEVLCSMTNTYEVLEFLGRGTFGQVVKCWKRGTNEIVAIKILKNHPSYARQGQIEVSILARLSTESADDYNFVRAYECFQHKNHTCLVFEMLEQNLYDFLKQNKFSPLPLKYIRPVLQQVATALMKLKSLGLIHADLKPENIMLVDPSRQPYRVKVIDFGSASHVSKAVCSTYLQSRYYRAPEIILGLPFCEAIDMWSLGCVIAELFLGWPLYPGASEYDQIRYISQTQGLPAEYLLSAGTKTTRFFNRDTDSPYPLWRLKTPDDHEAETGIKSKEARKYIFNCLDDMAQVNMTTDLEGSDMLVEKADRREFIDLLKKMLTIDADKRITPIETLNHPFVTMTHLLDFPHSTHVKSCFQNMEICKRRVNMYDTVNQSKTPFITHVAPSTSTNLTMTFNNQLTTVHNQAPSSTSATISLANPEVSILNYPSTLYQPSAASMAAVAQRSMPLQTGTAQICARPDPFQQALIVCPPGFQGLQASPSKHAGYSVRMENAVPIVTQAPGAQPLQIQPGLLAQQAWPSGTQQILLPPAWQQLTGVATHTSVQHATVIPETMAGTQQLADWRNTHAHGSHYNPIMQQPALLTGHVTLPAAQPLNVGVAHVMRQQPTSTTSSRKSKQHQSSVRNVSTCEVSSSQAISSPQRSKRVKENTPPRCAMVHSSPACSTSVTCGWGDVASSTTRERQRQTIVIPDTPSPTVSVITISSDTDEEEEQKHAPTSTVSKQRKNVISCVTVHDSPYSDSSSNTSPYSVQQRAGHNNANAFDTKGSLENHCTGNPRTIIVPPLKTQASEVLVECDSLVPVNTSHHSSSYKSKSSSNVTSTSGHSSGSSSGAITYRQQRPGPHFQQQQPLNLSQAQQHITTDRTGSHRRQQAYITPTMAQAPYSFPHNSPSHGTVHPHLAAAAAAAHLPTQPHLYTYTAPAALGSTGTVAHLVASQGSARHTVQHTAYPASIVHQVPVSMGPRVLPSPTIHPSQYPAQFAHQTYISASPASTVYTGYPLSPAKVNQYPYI

Sequence of Ribosomal protein S6 kinase alpha-5 (Homo sapiens) (O75582 whole entry, looked up): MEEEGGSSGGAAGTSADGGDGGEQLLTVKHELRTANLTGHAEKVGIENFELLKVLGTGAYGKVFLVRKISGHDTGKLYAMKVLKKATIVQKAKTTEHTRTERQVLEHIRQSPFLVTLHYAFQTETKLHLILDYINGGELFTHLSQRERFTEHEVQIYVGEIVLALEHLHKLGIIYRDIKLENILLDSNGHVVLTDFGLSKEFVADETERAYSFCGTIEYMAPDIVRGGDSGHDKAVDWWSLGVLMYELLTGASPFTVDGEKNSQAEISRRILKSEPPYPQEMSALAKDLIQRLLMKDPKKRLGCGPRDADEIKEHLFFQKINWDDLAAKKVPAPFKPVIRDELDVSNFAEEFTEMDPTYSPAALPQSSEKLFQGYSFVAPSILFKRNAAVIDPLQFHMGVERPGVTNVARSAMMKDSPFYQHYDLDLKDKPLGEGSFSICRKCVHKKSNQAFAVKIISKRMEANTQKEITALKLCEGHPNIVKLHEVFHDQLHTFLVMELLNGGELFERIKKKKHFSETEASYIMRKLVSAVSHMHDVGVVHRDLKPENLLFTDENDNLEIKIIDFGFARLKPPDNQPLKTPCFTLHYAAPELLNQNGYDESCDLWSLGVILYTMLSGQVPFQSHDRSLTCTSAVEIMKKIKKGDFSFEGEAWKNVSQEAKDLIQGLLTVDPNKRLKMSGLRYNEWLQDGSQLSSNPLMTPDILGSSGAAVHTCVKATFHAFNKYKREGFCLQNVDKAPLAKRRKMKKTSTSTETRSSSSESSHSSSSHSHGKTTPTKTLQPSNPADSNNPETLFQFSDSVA
Sequence of Casein kinase I isoform alpha-like (Homo sapiens) (Q8N752 whole entry, canonical isoform): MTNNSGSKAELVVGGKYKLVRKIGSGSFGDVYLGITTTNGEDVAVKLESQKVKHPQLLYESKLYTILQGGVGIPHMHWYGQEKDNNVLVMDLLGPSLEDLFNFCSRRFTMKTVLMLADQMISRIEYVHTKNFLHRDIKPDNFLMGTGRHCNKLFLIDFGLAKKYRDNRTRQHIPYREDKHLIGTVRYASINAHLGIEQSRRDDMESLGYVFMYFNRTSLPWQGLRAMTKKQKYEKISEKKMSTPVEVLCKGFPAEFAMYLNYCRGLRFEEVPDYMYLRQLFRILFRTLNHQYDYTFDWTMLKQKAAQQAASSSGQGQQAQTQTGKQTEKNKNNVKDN
Sequence of Insulin-like growth factor 1 receptor (Homo sapiens) (P08069 31-736 limits assumed): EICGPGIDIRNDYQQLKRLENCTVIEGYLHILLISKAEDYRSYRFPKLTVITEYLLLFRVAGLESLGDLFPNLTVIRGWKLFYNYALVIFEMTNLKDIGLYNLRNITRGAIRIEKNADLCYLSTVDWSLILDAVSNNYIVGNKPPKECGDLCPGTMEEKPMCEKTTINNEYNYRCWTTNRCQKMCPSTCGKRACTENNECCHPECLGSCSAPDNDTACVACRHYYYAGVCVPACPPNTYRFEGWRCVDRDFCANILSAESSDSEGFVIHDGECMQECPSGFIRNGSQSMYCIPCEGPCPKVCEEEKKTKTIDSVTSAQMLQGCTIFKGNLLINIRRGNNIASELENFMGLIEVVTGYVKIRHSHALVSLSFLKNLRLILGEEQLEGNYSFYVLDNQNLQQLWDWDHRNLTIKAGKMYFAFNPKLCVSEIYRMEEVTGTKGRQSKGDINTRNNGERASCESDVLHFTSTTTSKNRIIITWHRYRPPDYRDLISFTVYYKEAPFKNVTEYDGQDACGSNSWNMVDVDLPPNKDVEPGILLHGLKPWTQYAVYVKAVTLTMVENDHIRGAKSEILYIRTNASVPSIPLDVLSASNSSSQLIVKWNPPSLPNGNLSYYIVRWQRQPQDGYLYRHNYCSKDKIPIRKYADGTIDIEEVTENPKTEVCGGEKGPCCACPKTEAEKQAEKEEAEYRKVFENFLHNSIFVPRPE
Sequence of Insulin-like growth factor 1 receptor (Homo sapiens) (P08069 741-1367 limits assumed): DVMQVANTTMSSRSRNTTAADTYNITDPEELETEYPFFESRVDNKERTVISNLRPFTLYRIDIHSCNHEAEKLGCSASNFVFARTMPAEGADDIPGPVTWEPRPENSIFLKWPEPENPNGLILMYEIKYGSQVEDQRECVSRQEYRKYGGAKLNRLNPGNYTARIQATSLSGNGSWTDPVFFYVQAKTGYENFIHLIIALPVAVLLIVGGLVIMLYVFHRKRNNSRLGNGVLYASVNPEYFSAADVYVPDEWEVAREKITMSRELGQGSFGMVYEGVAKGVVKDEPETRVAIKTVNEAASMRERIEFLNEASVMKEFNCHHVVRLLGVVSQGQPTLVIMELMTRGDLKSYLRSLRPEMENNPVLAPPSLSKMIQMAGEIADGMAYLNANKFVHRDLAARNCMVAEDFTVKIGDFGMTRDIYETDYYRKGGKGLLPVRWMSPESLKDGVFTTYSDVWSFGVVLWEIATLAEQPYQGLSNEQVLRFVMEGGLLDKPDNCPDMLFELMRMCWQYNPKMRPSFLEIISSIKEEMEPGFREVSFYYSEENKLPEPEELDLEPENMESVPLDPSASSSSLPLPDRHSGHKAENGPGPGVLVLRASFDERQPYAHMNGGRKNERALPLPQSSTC
Sequence of Serine/threonine-protein kinase RIO3 (Homo sapiens) (O14730 whole entry): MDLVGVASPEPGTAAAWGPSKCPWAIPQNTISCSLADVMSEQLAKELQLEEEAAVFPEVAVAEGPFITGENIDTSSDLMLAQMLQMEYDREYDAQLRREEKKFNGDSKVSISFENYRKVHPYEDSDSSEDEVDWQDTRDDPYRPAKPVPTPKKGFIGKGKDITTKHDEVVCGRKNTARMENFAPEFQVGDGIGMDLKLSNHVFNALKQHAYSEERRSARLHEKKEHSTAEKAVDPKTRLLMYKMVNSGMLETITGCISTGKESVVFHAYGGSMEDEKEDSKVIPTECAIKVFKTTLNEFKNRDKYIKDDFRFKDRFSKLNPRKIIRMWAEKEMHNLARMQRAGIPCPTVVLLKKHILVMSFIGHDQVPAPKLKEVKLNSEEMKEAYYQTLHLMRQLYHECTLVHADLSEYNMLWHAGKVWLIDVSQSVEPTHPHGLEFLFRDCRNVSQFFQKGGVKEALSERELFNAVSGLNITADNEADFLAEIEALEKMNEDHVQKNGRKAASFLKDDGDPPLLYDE
Sequence of Cyclin-dependent kinase 4 (Homo sapiens) (P11802 whole entry): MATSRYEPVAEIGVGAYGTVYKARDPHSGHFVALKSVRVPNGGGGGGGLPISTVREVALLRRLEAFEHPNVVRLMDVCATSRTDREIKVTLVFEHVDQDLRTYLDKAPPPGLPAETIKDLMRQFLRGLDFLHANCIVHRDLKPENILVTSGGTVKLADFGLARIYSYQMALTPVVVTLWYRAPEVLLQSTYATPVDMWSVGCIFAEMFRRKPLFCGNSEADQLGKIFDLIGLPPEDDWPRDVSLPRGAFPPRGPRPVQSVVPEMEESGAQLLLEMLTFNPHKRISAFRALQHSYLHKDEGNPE
Sequence of Serine/threonine-protein kinase NIM1 (Homo sapiens) (Q8IY84 whole entry): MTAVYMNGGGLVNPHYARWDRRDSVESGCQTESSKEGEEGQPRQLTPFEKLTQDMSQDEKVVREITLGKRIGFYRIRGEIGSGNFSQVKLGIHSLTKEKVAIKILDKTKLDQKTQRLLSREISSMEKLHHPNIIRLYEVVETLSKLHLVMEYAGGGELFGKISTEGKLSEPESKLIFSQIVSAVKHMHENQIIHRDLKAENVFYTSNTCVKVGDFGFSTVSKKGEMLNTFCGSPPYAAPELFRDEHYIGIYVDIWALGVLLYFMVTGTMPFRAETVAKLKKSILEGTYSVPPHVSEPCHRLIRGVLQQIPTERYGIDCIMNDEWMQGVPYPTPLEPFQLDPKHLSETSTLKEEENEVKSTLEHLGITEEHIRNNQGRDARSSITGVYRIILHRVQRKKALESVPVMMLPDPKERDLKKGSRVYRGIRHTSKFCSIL

CN(C)CC#Cc1ccc(OCCCc2sc(N3CCc4cccc(C(=O)Nc5nc6ccccc6s5)c4C3)nc2C(=O)O)c(F)c1 [A-1155463]
inactive: residual activity [1] 88% | residual activity [2] 92% | residual activity [3] 98% | residual activity [4] 100% | residual activity [5] 79% | residual activity [6] 83% | residual activity [7] 100% | residual activity [8] 100% | residual activity [9] 90% | inhibition [10] 1.97% | residual activity [11] 100% | inhibition [12] 36.8% | residual activity [13] 100% | residual activity [14] 100% | residual activity [15] 100% | inhibition [16] -3.11% | residual activity [17] 81% | residual activity [18] 92% | residual activity [19] 83% | residual activity [20] 82% | residual activity [21] 100% | residual activity [22] 75% | residual activity [23] 100% | residual activity [24] 100% | inhibition [25] 2.01% | residual activity [26] 86% | residual activity [27] 100% | residual activity [28] 100% | residual activity [29] 95% | residual activity [30] 100% | residual activity [31] 100%

From ChEMBL document CHEMBL4507311, “Data for DCP probe A-1155463” (2021)
